The source of these data is ChEMBL document CHEMBL1127005, “Design of novel agents for the therapy of non-insulin dependent diabetes mellitus (NIDDM)” (Bioorg Med Chem Lett, 1993).

The first assay is filed under the species Rattus norvegicus. In words: Inhibition against gluconeogenesis was expressed as effect of compound on rat hepatocyte glucose production from 10 mM lactate/1 mM pyruvate/0.5 mM oleate. It counts as functional. The conditions noted are these: Rattus norvegicus, Hepatocyte.
`C=C1[C@@H](CC(N)=O)[C@H]1CCCCCCCCCCCC` had a concentration for half-maximal inhibition (IC50) of 32 µM. Same read-out and setting: as for `C=C1[C@@H](CC(=O)O)[C@H]1CCCC`, the figure is 15 µM.

`C=C1C[C@@H]1CC(N)=O` returned a concentration for half-maximal inhibition (IC50) of 30 µM.

`C=C1C[C@@H]1CC(=O)O`: 60 µM corresponded to half-maximal inhibition (IC50).

On to `C=C1[C@@H](CC(=O)O)[C@H]1CCCCCCCC`, for which half-maximal inhibition (IC50) was put at 5 µM.

As to `C=C1[C@@H](CC(=O)O)[C@H]1CCCCCCCCCCCC`, it took 25 µM to reach half-maximal inhibition (IC50). For the molecule `C=C1[C@H](CCCC)[C@H]1CC(N)=O`, half-maximal inhibition (IC50) required 60 µM. Same read-out and setting: as for `C=C1[C@H](CCCC)[C@H]1CC(=O)O`, the figure is 30 µM. Still for that read-out and setting: the result for `C=C1[C@@H](CCCCCCCCCCCC)[C@@H]1CC(=O)O` reads 160 µM; that for `C=C1[C@@H](CC(N)=O)[C@H]1CCCC`, 4 µM. Still for that read-out and setting: as for `C=C1[C@@H](CC(N)=O)[C@H]1CCCCCCCC`, the figure is 8 µM.

The same assay, now with this note: hepatocyte.
Turning to `C=C1[C@H](CCCCCCCCCCCC)[C@H]1CC(=O)O` (stereo in doubt; 4d), the IC50 came out at 200 µM. Regarding `C=C1[C@H](CCCCCCCCCCCC)[C@H]1CC(=O)O` (stereo in doubt), the 50% inhibitory concentration (IC50) stood at 13 µM.
